Measured values reported in patent publication US11299468B2, “Methods for producing 5-(halomethyl)furfural” (Origin Materials Operating, Inc., priority 2013, dated 2022).

Assay: Partition coefficient screen of CMF between organic phase and acidic brine
Type: physicochemical
Protocol: The solvent system used in the methods and compositions described herein may also be selected based on the partition coefficient of the 5-(halomethyl)furfural in the reaction mixture. As used herein, “partition coefficient” refers to the ratio of molar concentration of 5-(halomethyl)furfural in the organic phase to 5-(halomethyl)furfural in the aqueous phase in the reaction mixture.
[…] […] A 1 mL sample was removed from each phase. The microwave vial was then resealed, and re-shaken.
The 1 mL samples were added to volumetric flasks, where the acidic brine solution was diluted with THF and an amount of 37% HCl (˜3 mL) sufficient to eliminate the formation of a biphase with THF. The organic phase sample was diluted with toluene. The dilutions were then put into 1 dram vials and saved.
Further sampling of each phase was repeated every […] for the duration of each 4-hour experiment resulting in a total of 6 samples per experiment. Throughout the course of the experiment the microwave vial was shaken every 20 minutes to promote contact between the two phases. The 6 samples of each experiment in this Example were then taken from the 1 dram vials and put into 1.5 ml vials and submitted to HPLC for CMF analysis.

[1] = No. 1, organic Toluene, aqueous HCl (11.66N), 25 °C
[2] = No. 2, organic Toluene, aqueous 1N H+ 11N Li+ 12N Cl−, 24.6 °C
[3] = No. 3, organic Toluene, aqueous 6N H+ 6N Li+ 12N Cl−, 25 °C
[4] = No. 4, organic Toluene, aqueous 2N H+ 10N Li+ 12N Cl−, 29.7 °C
[5] = No. 5, organic Toluene, aqueous 1N H+ 11N Li+ 12N Cl−, 50 °C
[6] = No. 6, organic Toluene, aqueous 6N H+ 6N Li+ 12N Cl−, 50 °C
[7] = No. 7, organic Toluene, aqueous 2N H+ 10N Li+ 12N Cl−, 50 °C
[8] = No. 8, organic Toluene, aqueous 2N H+ 4N Mg2+ 12N Cl−, 23.6 °C
[9] = No. 9, organic Toluene, aqueous 2N H+ 4M sodium triflate 2M Cl−, 27.1 °C
[10] = No. 10, organic Toluene, aqueous 2M H+ 10M Na+ 12M Cl−, 24.6 °C
[11] = No. 11, organic Toluene, aqueous 2M H+ 1:1 12M LiCl:saturated NaCl, 24.1 °C
[12] = No. 12, organic Toluene, aqueous 2M H+ saturated KCl, 24.2 °C
[13] = No. 13, organic Toluene, aqueous 2M H+ 1:1 12M LiCl:saturated KCl, 24.8 °C
[14] = No. 14, organic Toluene, aqueous 2M H+ 1:2 12M LiCl:saturated NaCl, 24.5 °C
[15] = No. 15, organic Toluene, aqueous 2M H+ 1:2 12M LiCl:saturated KCl, 24.5 °C
[16] = No. 16, organic Toluene, aqueous 2M H+ 1:1 12M LiCl:saturated MgCl2, 22 °C
[17] = No. 17, organic Toluene, aqueous 2M H+ 10M Zn2+ 24M Cl−, 22 °C
[18] = No. 18, organic Toluene, aqueous 2M H+ 4.13M Ca2+ 12.2M Cl−, 27 °C
[19] = No. 19, organic Toluene, aqueous 2M H+ 6M Ca2+ 14M Cl−, 27 °C
[20] = No. 20, organic Toluene, aqueous 2M H+ 4.13M Ca2+ 12.2M Cl−, 50 °C
[21] = No. 21, organic Toluene, aqueous 2M H+ 6M Ca2+ 14M Cl−, 50 °C
[22] = No. 22, organic Toluene, aqueous 2M H+ Satd. Rb, 24.5 °C
[23] = No. 23, organic Toluene, aqueous 2M H+ Satd. Cs, 24.5 °C
[24] = No. 24, organic Cepsa ® 550Q, aqueous 6N H+ 6N Li+ 12N Cl−, 23.3 °C
[25] = No. 25, organic Cepsa ® 550Q, aqueous 1N H+ 11N Li+ 12N Cl−, 24.5 °C
[26] = No. 26, organic Cepsa ® 900Q, aqueous 1N H+ 11N Li+ 12N Cl−, 22.8 °C
[27] = No. 27, organic Cepsa ® 900Q, aqueous 6N H+ 6N Li+ 12N Cl−, 26.5 °C
[28] = No. 28, organic Santovac ®-5, aqueous 1N H+ 11N Li+ 12N Cl−, 27.2 °C
[29] = No. 29, organic Santovac ®-5, aqueous 6N H+ 6N Li+ 12N Cl−, 23.7 °C
[30] = No. 30, organic Santovac ®-5, aqueous 2N H+ 10N Li+ 12N Cl−, 28.1 °C
[31] = No. 31, organic Santovac ®-5, aqueous 1N H+ 11N Li+ 12N Cl−, 50 °C
[32] = No. 32, organic Santovac ®-5, aqueous 6N H+ 6N Li+ 12N Cl−, 50 °C
[33] = No. 33, organic Santovac ®-5, aqueous 2N H+ 10N Li+ 12N Cl−, 50 °C
[34] = No. 34, organic Dichloroethane (4 mL), aqueous 37% HCl (4 mL), 28.5 °C
[35] = No. 35, organic Dichloroethane (17.6 mL), aqueous 37% HCl (4 mL), 28.5 °C

**Q.** With `O=Cc1ccc(CCl)o1` [CMF, 5-(chloromethyl)furfural] as the compound, how does the “Normalized ratio (organic:aqueous)” value [1] read?
**A.** Its value is 3.0.

**Q.** What about the “log PC” value [1] of the same compound?
**A.** Its value is 0.48.

**Q.** And the “Normalized ratio (organic:aqueous)” value [2]?
**A.** The value was 144.0.

**Q.** What about the “log PC” value [2] of the same compound?
**A.** Its value is 2.16.

**Q.** What about the “Normalized ratio (organic:aqueous)” value [3] of the same compound?
**A.** The value was 17.4.

**Q.** And the “log PC” value [3]?
**A.** Its value is 1.24.

**Q.** What about the “Normalized ratio (organic:aqueous)” value [4] of the same compound?
**A.** The value was 72.9.

**Q.** What about the “log PC” value [4] of the same compound?
**A.** The value was 1.86.

**Q.** And the “Normalized ratio (organic:aqueous)” value [5]?
**A.** The value was 110.0.

**Q.** And the “log PC” value [5]?
**A.** Its value is 2.04.

**Q.** What about the “Normalized ratio (organic:aqueous)” value [6] of the same compound?
**A.** Its value is 18.9.

**Q.** And the “log PC” value [6]?
**A.** The value was 1.27.

**Q.** What about the “Normalized ratio (organic:aqueous)” value [7] of the same compound?
**A.** Its value is 79.6.

**Q.** And the “log PC” value [7]?
**A.** Its value is 1.9.

**Q.** And the “Normalized ratio (organic:aqueous)” value [8]?
**A.** The value was 61.3.

**Q.** What about the “log PC” value [8] of the same compound?
**A.** The value was 1.78.

**Q.** What about the “Normalized ratio (organic:aqueous)” value [9] of the same compound?
**A.** Its value is 8.3.

**Q.** And the “log PC” value [9]?
**A.** The value was 0.92.

**Q.** What about the “Normalized ratio (organic:aqueous)” value [10] of the same compound?
**A.** The value was 66.1.

**Q.** And the “log PC” value [10]?
**A.** Its value is 1.82.

**Q.** And the “Normalized ratio (organic:aqueous)” value [11]?
**A.** Its value is 90.1.

**Q.** And the “log PC” value [11]?
**A.** Its value is 1.95.

**Q.** What about the “Normalized ratio (organic:aqueous)” value [12] of the same compound?
**A.** Its value is 222.0.

**Q.** And the “log PC” value [12]?
**A.** Its value is 2.34.

**Q.** And the “Normalized ratio (organic:aqueous)” value [13]?
**A.** The value was 71.1.

**Q.** And the “log PC” value [13]?
**A.** The value was 1.85.

**Q.** And the “Normalized ratio (organic:aqueous)” value [14]?
**A.** Its value is 100.0.

**Q.** And the “log PC” value [14]?
**A.** Its value is 2.

**Q.** And the “Normalized ratio (organic:aqueous)” value [15]?
**A.** Its value is 119.0.

**Q.** What about the “log PC” value [15] of the same compound?
**A.** The value was 2.07.

**Q.** And the “Normalized ratio (organic:aqueous)” value [16]?
**A.** Its value is 68.0.

**Q.** And the “log PC” value [16]?
**A.** Its value is 1.83.

**Q.** What about the “Normalized ratio (organic:aqueous)” value [17] of the same compound?
**A.** Its value is 0.6.

**Q.** What about the “log PC” value [17] of the same compound?
**A.** The value was −0.23.

**Q.** What about the “Normalized ratio (organic:aqueous)” value [18] of the same compound?
**A.** The value was 73.8.

**Q.** And the “log PC” value [18]?
**A.** Its value is 1.87.

**Q.** And the “Normalized ratio (organic:aqueous)” value [19]?
**A.** Its value is 80.0.

**Q.** What about the “log PC” value [19] of the same compound?
**A.** Its value is 1.9.

**Q.** And the “Normalized ratio (organic:aqueous)” value [20]?
**A.** The value was 82.6.

**Q.** What about the “log PC” value [20] of the same compound?
**A.** The value was 1.91.

**Q.** What about the “Normalized ratio (organic:aqueous)” value [21] of the same compound?
**A.** The value was 141.7.

**Q.** And the “log PC” value [21]?
**A.** Its value is 2.15.

**Q.** What about the “Normalized ratio (organic:aqueous)” value [22] of the same compound?
**A.** Its value is 74.7.

**Q.** And the “log PC” value [22]?
**A.** Its value is 1.87.

**Q.** And the “Normalized ratio (organic:aqueous)” value [23]?
**A.** Its value is 41.3.

**Q.** What about the “log PC” value [23] of the same compound?
**A.** Its value is 1.61.

**Q.** What about the “Normalized ratio (organic:aqueous)” value [24] of the same compound?
**A.** Its value is 1.6.

**Q.** And the “log PC” value [24]?
**A.** The value was 1.61.

**Q.** And the “Normalized ratio (organic:aqueous)” value [25]?
**A.** Its value is 20.3.

**Q.** And the “log PC” value [25]?
**A.** The value was 1.31.

**Q.** And the “Normalized ratio (organic:aqueous)” value [26]?
**A.** Its value is 10.2.

**Q.** What about the “log PC” value [26] of the same compound?
**A.** Its value is 1.01.

**Q.** And the “Normalized ratio (organic:aqueous)” value [27]?
**A.** The value was 0.9.

**Q.** What about the “log PC” value [27] of the same compound?
**A.** The value was −0.04.

**Q.** And the “Normalized ratio (organic:aqueous)” value [28]?
**A.** Its value is 60.7.

**Q.** And the “log PC” value [28]?
**A.** The value was 1.78.

**Q.** What about the “Normalized ratio (organic:aqueous)” value [29] of the same compound?
**A.** Its value is 6.6.

**Q.** And the “log PC” value [29]?
**A.** The value was 0.82.

**Q.** What about the “Normalized ratio (organic:aqueous)” value [30] of the same compound?
**A.** Its value is 43.7.

**Q.** And the “log PC” value [30]?
**A.** The value was 1.64.

**Q.** What about the “Normalized ratio (organic:aqueous)” value [31] of the same compound?
**A.** The value was 65.6.

**Q.** And the “log PC” value [31]?
**A.** Its value is 1.81.

**Q.** What about the “Normalized ratio (organic:aqueous)” value [32] of the same compound?
**A.** Its value is 10.3.

**Q.** What about the “log PC” value [32] of the same compound?
**A.** Its value is 1.01.

**Q.** What about the “Normalized ratio (organic:aqueous)” value [33] of the same compound?
**A.** The value was 55.9.

**Q.** What about the “log PC” value [33] of the same compound?
**A.** The value was 1.74.

**Q.** What about the “Normalized ratio (organic:aqueous)” value [34] of the same compound?
**A.** The value was 10.9.

**Q.** And the “log PC” value [34]?
**A.** The value was 1.03.

**Q.** And the “Normalized ratio (organic:aqueous)” value [35]?
**A.** Its value is 11.6.

**Q.** And the “log PC” value [35]?
**A.** The value was 1.7.
